Test results from PubChem BioAssay AID602267 (Broad Institute, 2012).
Activity calls are given as the source filed them.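 The calls were made as follows: active = signal falls with dose and the fitted half-maximal concentration is at or below twice the top valid tested dose; inconclusive = flat curve with 30 to 70% inhibition, or poor fit; inactive = wrong direction, flat within 30%, or potency beyond limit.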

Biological target: Golgi-associated PDZ and coiled-coil motif-containing protein (Homo sapiens) (UniProt Q9HD26)
Assay: CAL PDZ domain peptide-binding inhibitors, dose response, biochemical, fluorescence polarization, untagged CAL PDZ, cherry-pick (AID 602267)
Details: purified CAL PDZ, TMR-peptide fluorescence polarization, 1 h

| Compound | activity change, negative = inhibition (at 50 µM (top of the series)) | activity change, negative = inhibition (at 16 µM (top of the series)) |
| --- | --- | --- |
| C=CCn1c(NC(=O)c2ccco2)nc2ccccc21 | inactive |  |
| CS(=O)(=O)N1CCN(C(=O)c2ccc3c(c2)OCCO3)CC1 | inactive |  |
| Oc1ccc(C=Nc2cccc3ccccc23)c(O)c1 | inactive |  |
| CCN(CC)Cc1c(O)ccc2c1O/C(=C\C=C\c1ccccc1)C2=O | inactive |  |
| CN(C(=O)CC1C(=O)NCCN1CC(c1ccccc1)c1ccccc1)C(C1CC1)C1CC1 (configuration not stated) | inactive |  |
| CC(=O)c1ccc(S(=O)(=O)N2CCN(c3ccccc3F)CC2)cc1 | inactive |  |
| COC(=O)c1ccc(CNC(=O)COC(=O)c2cc(Cl)nc(Cl)c2)cc1 | inactive |  |
| O=C(Nc1cc(Cl)ccc1N1CCOCC1)c1ccc2c(c1)OCCO2 | inactive |  |
| CCC(=O)c1cn(CC(=O)Nc2cccc(C)c2C)c2ccccc12 | inactive |  |
| CC(=O)Nc1ccc(Nc2ccc3nonc3c2[N+](=O)[O-])cc1 | inactive |  |
| O=C(Nc1cccc(F)c1)c1ccco1 | inactive |  |
| O=C1c2ccccc2C(=O)N1CSc1nnnn1-c1ccccc1 | inactive |  |
| CC1CCC(NC(=O)C2CCN(c3cnccn3)CC2)CC1 (configuration not stated) | inactive |  |
| O=C(c1cc2cc([N+](=O)[O-])ccc2oc1=O)N1CCN(C2CCCCC2)CC1 | inactive |  |
| COC(=O)C1CCN(C(=O)/C(C)=C\c2ccccc2)CC1 | inactive |  |
| C=CCOc1ccc2ccccc2c1CNn1cn[nH]c1=S | inactive |  |
| COc1cc(C)cc(CN2CC=C(c3ccccc3)CC2)c1O | inactive |  |
| O=C(Nc1nc2ccccc2[nH]1)c1cc2ccccc2o1 | inactive |  |
| N=c1c(S(=O)(=O)c2ccc(Cl)cc2)cc2c(=O)n3ccccc3nc2n1C1CCCCC1 | inactive |  |
| CCC(=O)N1CCC(C(N)=O)(N2CCCCC2)CC1 | inactive |  |
| CCc1noc(C)c1C(=O)N1CCCC(CCC(=O)NCc2ccc(F)c(F)c2)C1 (configuration not stated) | inactive |  |
| COc1ccc(CN2CCCC(N3CCN(c4cccc(Cl)c4)CC3)C2)cc1OC (configuration not stated) | inactive |  |
| CCCc1cc2c(cc1NC(=O)c1ccco1)OCO2 | inactive |  |
| O=c1c2cc3c(cc2[nH]c(=S)n1CCN1CCOCC1)OCO3 | inactive |  |
| COc1ccc(CN2CN(C3CCCC3)CSC2=S)cc1 | inactive |  |

| Compound | activity change, negative = inhibition (at 50 µM (top of the series)) | activity change, negative = inhibition (at 16 µM (top of the series)) |
| --- | --- | --- |
| COC(=O)N/N=C/c1sc(N2CCCCC2)nc1-c1cccs1 | inactive |  |
| CCOC(=O)N1CCN(Cc2nc3c(c(=O)n(C)c(=O)n3C)n2Cc2cccc(C)c2)CC1 | inactive |  |
| Cc1ccc(C(=O)NC(=S)N2CCN(c3cc(C)ccc3C)CC2)cc1 | inactive |  |
| COc1cccc(NC(=O)N2CCCCCC2)c1 |  | inactive |
| COc1cccc(N2CCN(C(=O)c3ccc(-c4ccccc4)cc3)CC2)c1 | inactive |  |
| O=C1C=C(c2ccccc2)C(c2ccccc2)C1 (configuration not stated) | inactive |  |
| O=C(NCc1cccnc1)c1ccc(Cn2c(=S)[nH]c3ccc(Br)cc3c2=O)cc1 | inactive |  |
| COC(=O)c1ccccc1NC(=O)n1cc(C)cn1 | inactive |  |
| Fc1ccc(-n2c(-c3ccc4ccccc4n3)n[nH]c2=S)cc1Cl | inactive |  |
| Cc1cc(C)nc(CCNC(=O)c2cc(COc3c(C)cccc3C)on2)n1 | inactive |  |
| CCC(=O)Nc1ccc(S(=O)(=O)NCc2ccco2)cc1 | inactive |  |
| Oc1ccc(/C=N\Nc2nncc(-c3ccccc3)n2)cc1 | inactive |  |
| COc1ccc(/C=N/Nc2cc(C)nc3ccc(OC)cc23)c(OC)c1 | inactive |  |
| CN(C)CCNC(=O)COc1cccc2c1OC(C)(C)C2 | inactive |  |
| CN(CC1CCCO1)S(=O)(=O)c1ccc(C(=O)Nc2ccc([N+](=O)[O-])cc2)cc1 (configuration not stated) | inactive |  |
| CCCNC(=O)C(=O)NCC1CCCN1CC (configuration not stated) | inactive |  |
| N/C(=N\OC(=O)Cc1ccccc1[N+](=O)[O-])c1cccnc1 | inactive |  |
| O=C(COC(=O)c1ccccc1C(=O)N1CCN(c2ccccc2)CC1)NCc1ccccc1 | inactive |  |
| Brc1cccc(CNCC2CCCO2)c1 (configuration not stated) | inactive |  |
| N#Cc1ccc(CC(=O)c2ccccc2)[nH]c1=O | inactive |  |
| COc1ccc(CC(=O)N2CCC(CCC(=O)Nc3ccccc3)CC2)cc1 | inactive |  |
| CC1Cc2ccccc2N1C(=O)CNc1ccccc1N1CCCCC1 (configuration not stated) | inactive |  |
| Cc1ccccc1N1CCN(S(=O)(=O)c2ccccc2)CC1 | inactive |  |
| CN1CCN(c2ccccc2NC(=O)c2ccc(N3CCCC3)c([N+](=O)[O-])c2)CC1 | inactive |  |
| O=C(O)c1cccc(Nc2ccc([N+](=O)[O-])cn2)c1 | inactive |  |

| Compound | activity change, negative = inhibition (at 50 µM (top of the series)) | activity change, negative = inhibition (at 16 µM (top of the series)) |
| --- | --- | --- |
| COc1ccccc1C(=O)Nc1ccc2c(c1)CN(C(=O)CSC)CC2 | inactive |  |
| CCCOc1ccc(S(=O)(=O)Nc2ccccn2)c2ccccc12 | inactive |  |
| CC(=O)Nc1ccc(N/C=C/C(=O)c2ccccc2)cc1 | inactive |  |
| Cc1ccc(NC(=O)N2CCCC2C(=O)NCC2CCCO2)cc1 (configuration not stated) | inactive |  |
| O=C1OC2(CCCCC2)OC(=O)C1=CNc1nc2ccccc2s1 | inactive |  |
| COc1ccc(C(=O)c2ccc(C)cc2)c(OC)c1OC | inactive |  |
| Cc1cc(C(=O)Nc2ccccc2Cl)c2ccccc2n1 | inactive |  |
| CCCSC1=N/C(=C\c2ccc([N+](=O)[O-])o2)C(=O)S1 | inactive |  |
| O=C(Nc1ccccc1Cl)Nc1cccnc1Cl | inactive |  |
| COc1ccc(-c2nc3ccccc3o2)cc1OC | inactive |  |
| O=C(Cc1ccccc1)NN=C1CCCC1 | inactive |  |
| O=C(NC1CCCCCCC1)c1cc([N+](=O)[O-])ccc1Cl | inactive |  |
| Cn1c(=O)c2c(ncn2CC(=O)Nc2nc(-c3ccccc3Cl)cs2)n(C)c1=O | inactive |  |
| O=C(NCc1ccccn1)c1ccc(NS(=O)(=O)c2ccccc2)cc1 | inactive |  |
| Cc1ccc(NC(=O)CN(C)C(=S)NC2CC2)cc1 | inactive |  |
| Cc1cccc(NS(=O)(=O)Cc2ccccc2)c1C | inactive |  |
| COCc1cc(C)nc(SCc2ccccc2)c1C#N | inactive |  |
| COc1ccc(Br)c(C(=O)NC2CCCC2)c1 | inactive |  |
| Cc1cccc(NC(=O)Cn2cnc3c(oc4ccccc43)c2=O)c1C | inactive |  |
| Cc1c(NC(=O)CN2CCC(C(N)=O)CC2)cccc1[N+](=O)[O-] | inactive |  |
| CSc1ccccc1NC(=O)C1CC(c2c(F)cccc2Cl)=NO1 (configuration not stated) | inactive |  |
| C=CCNC(=O)CC1Nc2c3ccccc3nc(=S)n2C1=O (configuration not stated) | inactive |  |
| C/C(=N\NC(=O)c1cc(-c2ccc(C)s2)nc2ccccc12)c1cccnc1 | inactive |  |
| CCCn1nnnc1NCc1cc(Br)ccc1OC | inactive |  |
| Cc1cccc(C)c1NC(=S)NC(=O)c1ccc(Br)o1 | inactive |  |

| Compound | activity change, negative = inhibition (at 50 µM (top of the series)) | activity change, negative = inhibition (at 16 µM (top of the series)) |
| --- | --- | --- |
| Cc1cc(Cl)c(Cl)cc1S(=O)(=O)NCCCn1ccnc1 | inactive |  |
| O=C(COc1ccccc1)N1CCCCCCC1 | inactive |  |
| c1ccc(CNc2nc(NCc3ccccc3)c3ccccc3n2)cc1 | inactive |  |
| O=C(NCc1cccs1)c1cccn2c(=O)c3sccc3nc12 | inactive |  |
| Cc1cc(C(=O)CN2CCCC2)c(C)n1-c1ccc(Cl)cc1 | inactive |  |
| CS(=O)(=O)c1ccc(Cl)c(NC(=O)COC(=O)c2c(Cl)cccc2Cl)c1 | inactive |  |
| O=C(CSc1nccc(=O)[nH]1)Nc1ccc(Oc2ccccc2)cc1 | inactive |  |
| CSc1ccc(CNCCCSc2ncccn2)cc1 | inactive |  |
| CCCC(=O)OCC(=O)Nc1ccccc1C#N | inactive |  |
| CCc1ccc(C2CC(=O)N(c3cccc(F)c3)C3=C2C(=O)OC3)cc1 (configuration not stated) | inactive |  |
| CC1CCC(NC(=O)c2ccc3c(c2)S(=O)(=O)c2ccccc2C3=O)CC1 (configuration not stated) | inactive |  |
| O=C(c1cccc(Oc2c(Cl)cccc2[N+](=O)[O-])c1)N1CCOCC1 | inactive |  |
| CC(=O)N1CCN(c2ccc(NC(=O)c3cccc(Cl)c3Cl)cc2)CC1 | inactive |  |
| O=C(CN(Cc1ccccc1)S(=O)(=O)c1ccc(F)cc1)NCCC1=CCCCC1 | inactive |  |
| O=C(NNC(=S)NC(=O)c1ccc(Br)cc1)c1ccc([N+](=O)[O-])cc1 | inactive |  |
| OCC1(CCOc2ccccc2)CCN(CCCn2cccn2)CC1 | inactive |  |
| OC(c1ccccc1)(c1ccccc1)c1nccc2ccccc12 | inactive |  |
| O=C(/C=C/c1cccs1)Nc1scc(-c2ccccc2)c1C(=O)O | inactive |  |
| COc1cc(C2NC(=O)NC(C)=C2C(=O)OC2CCCCC2)cc(Br)c1O (configuration not stated) |  | inactive |
| CC1=C(C#N)C(=O)NC(=O)/C1=C\c1ccc(-c2cc(C)c(C)cc2[N+](=O)[O-])o1 | inactive |  |
| CCN(C(=O)CSc1ncccc1C(=O)O)C1CCCCC1 | inactive |  |
| CCCCC(CCC(=O)Nc1nccs1)C(=O)O (configuration not stated) | inactive |  |
